{"source": "patent US20240076297A1", "about": "“ADENOSINE A2A AND A2B RECEPTOR DUAL ANTAGONISTS FOR IMMUNO-ONCOLOGY” (Merck Sharp & Dohme LLC, priority 2020, published 2024)", "key": {"[1]": {"target": "human A2A adenosine receptor (Homo sapiens (Human), UniProt P29274)", "sequence (P29274 whole entry)": "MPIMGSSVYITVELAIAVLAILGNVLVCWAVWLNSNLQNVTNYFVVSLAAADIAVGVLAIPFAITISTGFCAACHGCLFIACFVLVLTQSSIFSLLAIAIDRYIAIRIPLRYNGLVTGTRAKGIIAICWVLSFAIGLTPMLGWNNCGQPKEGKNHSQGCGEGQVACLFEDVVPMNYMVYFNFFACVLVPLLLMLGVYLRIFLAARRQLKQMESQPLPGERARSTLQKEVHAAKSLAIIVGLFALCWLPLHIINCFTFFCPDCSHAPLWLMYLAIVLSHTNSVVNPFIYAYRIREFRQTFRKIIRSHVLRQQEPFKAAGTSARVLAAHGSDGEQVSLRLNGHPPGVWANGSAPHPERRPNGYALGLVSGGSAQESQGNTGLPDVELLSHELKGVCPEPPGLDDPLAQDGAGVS", "assay": "A2A binding affinity using radioligand binding, Method (A)", "conditions": "Method (A): filtration radioligand binding, [3H] SCH58261, membranes expressing human A2A", "from_the_text": "(§1) Method (A) describes the procedure used to measure A2A binding affinity using radioligand binding. Method (B) describes the procedure used to measure A2A binding affinity using SPA technology. The method used to measure A2B binding affinity is also described below. The method used to determine the A2A IC50 value reported for each compound in the table is indicated next to the reported value. The A2B IC50 value measured using the A2B binding affinity assay is shown in the table next to the compound under the corresponding A2A value.\nThe A2A receptor affinity binding assay measured the amount of binding of a tritiated ligand with high affinity for the A2A adenosine receptor to membranes made from HEK293 or CHO cells recombinantly expressing the human A2A adenosine receptor, in the presence of varying concentrations of a compound of the invention. The data were generated using either filtration binding or a homogenous scintillation proximity assay (SPA).\nMethod (A): Measurement of A2A Binding Affinity Using Radioligand Binding\n148 μL (5 μg/mL) membranes (Perkin Elmer, Cat. No. RBHA2aM400UA) and 2 μL compounds of the invention to be tested (test compound) were transferred to individual wells of a 96-well polypropylene assay plate and incubated for 15 to 30 min at room temperature. [^3H] SCH58261 ((7-(2-phenylethyl)-5-amino-2-(2-furyl)-pyrazolo-[4,3-e]-1,2,4-triazolo[1,5-c]pyrimidine)) was diluted in assay buffer (50 mM Tris pH 7.4, 10 mM MgCl2, 0.005% Tween20) to a concentration of 4 nM and 50 μL transferred to each well of the assay plate. To define total and non-specific binding, wells containing 1% DMSO and 1 μM ZM241385 (Tocris Bioscience, Cat. No. 1036) respectively, were also included. The assay plate was incubated at room temperature for 60 min with agitation. Using a FilterMate Harvester® (Perkin Elmer), the contents of the assay plate were filtered through a UniFilter-96® PEI coated plate (Perkin Elmer Cat. No. 6005274 or 6005277). Filtering was achieved by aspirating the contents of the assay plate for 5 sec, then washing and aspirating the contents three times with ice-cooled wash buffer (50 mM Tris-HCl pH 7.4, 150 mM NaCl) and allowing the vacuum manifold to dry the plate for 30 sec. The filter plate was incubated for at least 1 h at 55° C. and allowed to dry. The bottom of the filter plate was sealed with backing tape. 40 μL Ultima Gold™ (Perkin Elmer, Cat. No. 6013329) was added to each well of the filter plate and the top of the plate was sealed with TopSeal-A PLUS® clear plate seal (Perkin Elmer, Cat. No. 6050185). The plate was incubated for at least 20 min, and then the amount of radioactivity remaining in each well was determined using a TopCount® (Perkin Elmer) scintillation counter. After normalization to total and non-specific binding, the percent effect at each compound concentration was calculated. The plot of percent effect versus the log of compound concentration was analyzed electronically using a 4-parameter logistic fit based on the Levenberg-Marquardt algorithm to generate IC50 values."}, "[2]": {"target": "human A2B adenosine receptor (Homo sapiens (Human), UniProt P29275)", "sequence (P29275 whole entry)": "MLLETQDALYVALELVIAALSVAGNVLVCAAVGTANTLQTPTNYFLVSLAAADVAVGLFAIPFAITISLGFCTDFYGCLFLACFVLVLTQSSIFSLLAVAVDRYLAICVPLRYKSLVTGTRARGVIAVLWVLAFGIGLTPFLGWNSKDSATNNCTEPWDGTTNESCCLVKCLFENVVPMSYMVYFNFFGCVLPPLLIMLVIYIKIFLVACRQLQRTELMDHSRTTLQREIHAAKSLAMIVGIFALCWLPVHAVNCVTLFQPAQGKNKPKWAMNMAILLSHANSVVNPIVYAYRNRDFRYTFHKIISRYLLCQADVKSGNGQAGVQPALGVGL", "assay": "A2B binding affinity, radioligand filtration binding assay", "conditions": "value given with marker (A); HEK293 membranes expressing human A2B, tritiated proprietary antagonist", "from_the_text": "as §1\nMeasurement of A2B Binding Affinity\nThe reported affinity of the compounds of the invention for the human A2B adenosine receptor was determined experimentally using a radioligand filtration binding assay. This assay measures the amount of binding of a tritiated proprietary A2B receptor antagonist, in the presence and absence of a compound of the invention, to membranes made from HEK293 cells recombinantly expressing the human A2B adenosine receptor (Perkin Elmer, Cat. No. ES-013-C).\n148 μL (135 μg/mL) membranes and 2 μL test compounds were transferred to individual wells of a 96-well polypropylene assay plate and incubated for 15 to 30 min at room temperature with agitation. Tritiated radioligand was diluted to a concentration of 14 nM in assay buffer (phosphate buffered saline without Magnesium and Calcium, pH 7.4; GE Healthcare Life Sciences, Cat. No. SH30256.01) and then 50 μL of the solution were transferred to each well of the assay plate. To define total and non-specific binding, wells containing 1% DMSO and 20 μM N-ethylcarboxamidoadenosine (Tocris Bioscience, Cat. No. 1691) respectively, were also included. The wells of the assay plate were incubated at room temperature for 60 min with agitation, then filtered using a FilterMate Harvester® (Perkin Elmer) or similar equipment through a UniFilter-96@ PEI coated plate (Perkin Elmer Cat. No. 6005274 or 6005277). Filtering was achieved by aspirating the contents of the assay plate for 5 sec, then washing and aspirating the contents three times with ice-cooled wash buffer (assay buffer supplemented with 0.0025% Brij58) and allowing the vacuum manifold to dry the plate for 30 sec. The filter plate was incubated for at least 1 h at 55° C. and allowed to dry. The bottom of the filter plate was then sealed with backing tape. 40 μL Ultima Gold™ (Perkin Elmer, Cat. No. 6013329) was added to each well of the filter plate and the top of the plate was sealed with TopSeal-A PLUS® clear plate seal (Perkin Elmer, Cat. No. 6050185). The plates were then incubated for at least 20 min, and then the amount of radioactivity remaining in each well was determined using a TopCount® (Perkin Elmer) scintillation counter. After normalization to total and non-specific binding, the percent effect at each compound concentration was calculated. The plot of percent effect versus the log of compound concentration was analyzed electronically using a 4-parameter logistic fit based on the Levenberg-Marquardt algorithm to generate IC50 values."}}}
{"smiles": "COc1cccc2c1nc(N)n1nc(CCS(=O)(=O)c3ccc(F)cc3)nc21", "note": "[Example 13.4, 2-(2-((4-fluorophenyl)sulfonyl)ethyl)-7-methoxy-[1,2,4]triazolo[1,5-c]quinazolin-5-amine]", "values": [{"measurement": "IC50", "setting": "[1]", "value": 0.3, "unit": "nM"}, {"measurement": "IC50", "setting": "[2]", "value": 973, "unit": "nM"}]}
{"smiles": "COc1cccc2c1nc(N)n1nc(CCC3CCn4c(cnc4C4CC(F)(F)C4)C3)nc21", "note": "(single isomer, unassigned) [Example 7.5A, (S or R)-2-(2-(3-(3,3-difluorocyclobutyl)-5,6,7,8-tetrahydroimidazo-[1,5-a]pyridin-7-yl)ethyl)-7-methoxy-[1,2,4]triazolo[1,5-c]-quinazolin-5-amine]", "values": [{"measurement": "IC50", "setting": "[1]", "value": 2.2, "unit": "nM"}]}
{"smiles": "COc1cccc2c1nc(N)n1nc(COC3CCc4c(nnn4C4CC(F)(F)C4)C3)nc21", "note": "(single isomer, unassigned) [Example 2.2B, (R or S)-2-(((1-(3,3-difluorocyclobutyl)-4,5,6,7-tetrahydro-1H-benzo[d][1,2,3]triazol-5-yl)oxy)methyl)-7-methoxy-[1,2,4]triazolo[1,5-c]quinazolin-5-amine]", "values": [{"measurement": "IC50", "setting": "[1]", "value": 0.6, "unit": "nM"}]}
{"smiles": "COc1cc(F)cc2c1nc(N)n1nc(CCC3CCc4c(cnn4C(C)C)C3)nc21", "note": "(single isomer, unassigned) [Example 7.7A, (S or R)-9-fluoro-2-(2-(1-isopropyl-4,5,6,7-tetrahydro-1H-indazol-5-yl)ethyl)-7-methoxy-[1,2,4]triazolo[1,5-c]quinazolin-5-amine]", "values": [{"measurement": "IC50", "setting": "[1]", "value": 5.5, "unit": "nM"}]}
{"smiles": "COc1cc(F)cc2c1nc(N)n1nc(Cc3cnn(CCCC(C)(C)O)c3)nc21", "note": "[Example 16.4, 5-(4-((5-amino-9-fluoro-7-methoxy-[1,2,4]triazolo[1,5-c]quinazolin-2-yl)methyl)-1H-pyrazol-1-yl)-2-methylpentan-2-ol]", "values": [{"measurement": "IC50", "setting": "[1]", "value": 15.3, "unit": "nM"}]}
{"smiles": "COc1cccc2c1nc(N)n1nc(CCC3CCc4c(cnn4C(C)C)C3)nc21", "note": "(single isomer, unassigned) [Example 7.8B, (R or S)-2-(2-(1-isopropyl-4,5,6,7-tetrahydro-1H-indazol-5-yl)ethyl)-7-methoxy-[1,2,4]triazolo[1,5-c]quinazolin-5-amine]", "values": [{"measurement": "IC50", "setting": "[1]", "value": 2.4, "unit": "nM"}]}
{"smiles": "COc1cc(F)cc2c1nc(N)n1nc(CCC3CCc4c(cnn4C(C)C)C3)nc21", "note": "(single isomer, unassigned) [Example 7.7B, (R or S)-9-fluoro-2-(2-(1-isopropyl-4,5,6,7-tetrahydro-1H-indazol-5-yl)ethyl)-7-methoxy-[1,2,4]triazolo[1,5-c]quinazolin-5-amine]", "values": [{"measurement": "IC50", "setting": "[1]", "value": 2.6, "unit": "nM"}]}
{"smiles": "COc1cc(F)cc2c1nc(N)n1nc(CCC3CCc4nn(C(C)C)cc4C3)nc21", "note": "(single isomer, unassigned) [Example 5.4B, (R or S)-9-fluoro-2-(2-(2-isopropyl-4,5,6,7-tetrahydro-2H-indazol-5-yl)ethyl)-7-methoxy-[1,2,4]triazolo[1,5-c]quinazolin-5-amine]", "values": [{"measurement": "IC50", "setting": "[1]", "value": 5.5, "unit": "nM"}]}
{"smiles": "CS(=O)(=O)CCCc1nc2c3cc(F)cc(F)c3nc(N)n2n1", "note": "[Example 13.19, 7,9-difluoro-2-(3-(methylsulfonyl)propyl)-[1,2,4]triazolo[1,5-c]quinazolin-5-amine]", "values": [{"measurement": "IC50", "setting": "[1]", "value": 21.8, "unit": "nM"}]}
{"smiles": "COc1cc(F)cc2c1nc(N)n1nc(CCC3CCn4c(cnc4C4(C(F)(F)F)CC4)C3)nc21", "note": "(single isomer, unassigned) [Example 12.3A, (S or R)-9-fluoro-7-methoxy-2-(2-(3-(1-(trifluoromethyl)cyclopropyl)-5,6,7,8-tetrahydroimidazo[1,5-a]pyridin-7-yl)ethyl)-[1,2,4]triazolo[1,5-c]quinazolin-5-amine]", "values": [{"measurement": "IC50", "setting": "[1]", "value": 5.7, "unit": "nM"}]}
{"smiles": "COc1cc(F)cc2c1nc(N)n1nc(CC3CC3c3ccc(C(C)(C)N)cc3)nc21", "note": "(single isomer, unassigned) [Example 8.4A, 2-(((1S, 2R or 1R,2S)-2-(4-(2-aminopropan-2-yl)phenyl)-cyclopropyl)methyl)-9-fluoro-7-methoxy-[1,2,4]triazolo-[1,5-c]quinazolin-5-amine]", "values": [{"measurement": "IC50", "setting": "[1]", "value": 10.2, "unit": "nM"}]}
{"smiles": "COc1cc(F)cc2c1nc(N)n1nc(CCC3CCn4c(cnc4C4CC(F)(F)C4)C3)nc21", "note": "(single isomer, unassigned) [Example 7.3A, (S or R)-2-(2-(3-(3,3-difluorocyclobutyl)-5,6,7,8-tetrahydroimidazo-[1,5-a]pyridin-7-yl)ethyl)-9-fluoro-7-methoxy-[1,2,4]triazolo[1,5-c]-quinazolin-5-amine]", "values": [{"measurement": "IC50", "setting": "[1]", "value": 2.8, "unit": "nM"}]}
{"smiles": "CN=S(=O)(CCc1nc2c3cccc(OC)c3nc(N)n2n1)C1CC1", "note": "(single isomer, unassigned) [Example 10.3B, (R or S)-(2-(5-amino-7-methoxy-[1,2,4]triazolo[1,5-c]quinazolin-2-yl)ethyl)(cyclopropyl)(methylimino)-λ^6-sulfanone]", "values": [{"measurement": "IC50", "setting": "[1]", "value": 3.7, "unit": "nM"}]}
{"smiles": "COc1cccc2c1nc(N)n1nc(CCC3CCc4nn(C(C)C)cc4C3)nc21", "note": "(single isomer, unassigned) [Example 7.2B, (R or S)-2-(2-(2-isopropyl-4,5,6,7-tetrahydro-2H-indazol-5-yl)ethyl)-7-methoxy-[1,2,4]triazolo[1,5-c]quinazolin-5-amine]", "values": [{"measurement": "IC50", "setting": "[1]", "value": 2.3, "unit": "nM"}]}
{"smiles": "COc1cc(F)cc2c1nc(N)n1nc(CCC3CCn4c(cnc4C4(C(F)(F)F)CC4)C3)nc21", "note": "(single isomer, unassigned) [Example 12.3B, (R or S)-9-fluoro-7-methoxy-2-(2-(3-(1-(trifluoromethyl)cyclopropyl)-5,6,7,8-tetrahydroimidazo[1,5-a]pyridin-7-yl)ethyl)-[1,2,4]triazolo[1,5-c]quinazolin-5-amine]", "values": [{"measurement": "IC50", "setting": "[1]", "value": 6.7, "unit": "nM"}]}
{"smiles": "CC(C)(N)c1ccc([C@@H]2C[C@H]2Cc2nc3c4cc(F)cc(F)c4nc(N)n3n2)cc1", "note": "[Example 8.3A, 2-(((1S,2R)-2-(4-(2-aminopropan-2-yl)phenyl)cyclopropyl)methyl)-7,9-difluoro-[1,2,4]triazolo[1,5-c]quinazolin-5-amine]", "values": [{"measurement": "IC50", "setting": "[1]", "value": 38.1, "unit": "nM"}]}
{"smiles": "COc1cccc2c1nc(N)n1nc(CCS(=N)(=O)C3CC3)nc21", "note": "(single isomer, unassigned) [Example 11.1A, (S or R)-(2-(5-amino-7-methoxy-[1,2,4]triazolo[1,5-c]quinazolin-2-yl)ethyl)(cyclopropyl)(imino)-26-sulfanone]", "values": [{"measurement": "IC50", "setting": "[1]", "value": 1.2, "unit": "nM"}]}
{"smiles": "COc1cc(F)cc2c1nc(N)n1nc(CCC3CCn4c(cnc4C4CC(F)(F)C4)C3)nc21", "note": "(single isomer, unassigned) [Example 7.3B, (R or S)-2-(2-(3-(3,3-difluorocyclobutyl)-5,6,7,8-tetrahydroimidazo-[1,5-a]pyridin-7-yl)ethyl)-9-fluoro-7-methoxy-[1,2,4]triazolo[1,5-c]-quinazolin-5-amine]", "values": [{"measurement": "IC50", "setting": "[1]", "value": 4.6, "unit": "nM"}]}
